Test system: ANP-System
Assay: Acute hypervolaemia model in the rat (volume load, urine collected over one hour)
Type: in vivo
Conditions: Ratte; for Steigerung der Na⁺-Ausscheidung: 10 mg/kg p.o. in Tylose-Suspension, acute volume load by 15 ml/kg physiological saline into the tail vein, urine collected over one hour
Excerpt: Die ausgewählten erfindungsgemäßen Verbindungen zeigen ein nicht vorhersehbares, wertvolles pharmakologisches Wirkspektrum. Im Vergleich zu strukturähnlichen, bekannten Dihydropyridinen wie z.B. in DOS 2 228 377 beschriebenen Vertretern, zeigen die erfindungsgemäßen Verbindungen sowohl quantitativ als auch qualitativ ein anderes Wirkungsspektrum. Neben ihrer calciumantagonistischen Wirkung steigern sie die ANP-abhängige Natriurese bei Stimulation des ANP-Systems durch Volumenbelastung. Diese zusätzliche Wirkkomponente wurde in einem Modell der akuten Hypervolämie an der Ratte nachgewiesen: Die Testsubstanzen wurden oral in Tylose-Suspension verabreicht. Durch Injektion von 15 ml/kg physiologischer Kochsalzlösung in die Schwanzvene wurde eine akute Volumenbelastung ausgelöst und anschließend der Urin über eine Stunde gesammelt. Unerwarteterweise verstärken die erfindungsgemäßen Verbindungen die Natriumausscheidung. Gleichzeitig wird die Ausscheidung von cGMP, das einen spezifischen Marker für die Aktivierung des ANP-Systems darstellt, erhöht (z.B. um 100 % bei Beispiel 19).

Structure (SMILES) | Steigerung der Na⁺-Ausscheidung | Ausscheidung von cGMP erhöht (oral in Tylose-Suspension, acute volume load by 15 ml/kg saline i.v., urine over one hour, dose not given)
COC(=O)C1=C(C)NC(C)=C(C(=O)NC2CC2)C1c1ccccc1OCCCOc1ccccc1 (stereo not shown) [Beispiel 2] | 80% | –
COC(=O)C1=C(C)NC(C)=C(C(=O)NC2CCCC2)C1c1ccccc1OC (stereo not shown) [Beispiel 11] | 95% | –
COC(=O)C1=C(C)NC(C)=C(C(=O)NC2CC2)C1c1ccccc1OC(F)(F)F (stereo not shown) [Beispiel 19] | 100% | 100%

From patent EP0493782A2, “Novel dihydropyridine amides, process for their preparation and drugs containing them” (BAYER AG, priority 1991, dated 1992)
